Measured values from patent US11066425B1, “Oxo-substituted compound” (SUMITOMO DAINIPPON PHARMA CO., LTD., priority 2018, dated 2021).
Counter-ions that a name gives are not always drawn.

Test system: β-lactamase producing bacteria
Assay: Test Example 1: MIC of meropenem (MEPM) combined with test compound at fixed 4 μg/mL, broth microdilution
Format: cell-based
Conditions: relative to MEPM alone
Procedure: Test Example 1: Evaluation of Minimum Inhibitory Concentration (MIC) of MEPM Against β-Lactamase Producing Bacteria
To evaluate the β-lactamase inhibitory activity of test compounds, the effect of combination of a test compound and a β-lactam agent against β-lactamase producing bacteria was evaluated. Meropenem (MEPM) was used as a β-lactam antimicrobial agent. The minimum inhibitory concentration (MIC) of MEPM against β-lactamase producing bacteria when a test compound was added at a fixed concentration (4 μg/mL) was measured by broth microdilution method (common ratio: 2). MIC of MEPM decreasing to less than 1/32 in combination with a test compound is indicated by A, decreasing from 1/32 to 1/16 is indicated by B, decreasing from ⅛ to ¼ is indicated by C, and decreasing to ½ or others are indicated by D. “-” represents untested cases.

Row | Compound | Decrease of MIC of MEPM in combination with a test compound, E. coli ATCC BAA-2340 (KPC) | Decrease of MIC of MEPM in combination with a test compound, K. pneumoniae ATCC BAA-2344 (KPC) | Decrease of MIC of MEPM in combination with a test compound, K. pneumoniae ATCC BAA-2524 (OXA-48)
1 | O=C(O)c1c(OC2CN(C(=O)Cc3cccnc3)C2)ccc2c1O[B-](O)(O)CC2 [Example 14, 4,4-dihydroxy-8-({1-[(pyridin-3-yl)acetyl]azetidin-3-yl}oxy)-5-oxa-4-boranuidabicyclo[4.4.0]deca-l(6),7,9-triene-7-carboxylic acid disodium salt] | A (MIC of MEPM decreasing to less than 1/32 in combination with a test compound is indicated by A) | A (MIC of MEPM decreasing to less than 1/32 in combination with a test compound is indicated by A) | B (decreasing from 1/32 to 1/16 is indicated by B)
2 | N[C@H](C(=O)N1CC(Oc2ccc3c(c2C(=O)O)O[B-](O)(O)CC3)C1)c1ccccc1 [Example 15, 8-({1-[(2S)-2-amino-2-phenylacetyl]azetidin-3-yl}oxy)-4,4-dihydroxy-5-oxa-4-boranuidabicyclo[4.4.0]deca-l(6),7,9-triene-7-carboxylic acid disodium salt] | A (MIC of MEPM decreasing to less than 1/32 in combination with a test compound is indicated by A) | A (MIC of MEPM decreasing to less than 1/32 in combination with a test compound is indicated by A) | B (decreasing from 1/32 to 1/16 is indicated by B)
3 | O=C(O)c1c(OC2CN(C(=O)Cc3ccncc3)C2)ccc2c1O[B-](O)(O)CC2 [Example 16, 4,4-dihydroxy-8-({1-[(pyridin-4-yl)acetyl]azetidin-3-yl}oxy)-5-oxa-4-boranuidabicyclo[4.4.0]deca-l(6),7,9-triene-7-carboxylic acid disodium salt] | A (MIC of MEPM decreasing to less than 1/32 in combination with a test compound is indicated by A) |  | B (decreasing from 1/32 to 1/16 is indicated by B)
4 | O=C(O)c1c(OC2CN(C(=O)Cc3ccc(O)cc3)C2)ccc2c1O[B-](O)(O)CC2 [Example 17, 4,4-dihydroxy-8-({1-[(4-hydroxyphenyl)acetyl]azetidin-3-yl}oxy)-5-oxa-4-boranuidabicyclo[4.4.0]deca-l(6),7,9-triene-7-carboxylic acid disodium salt] | A (MIC of MEPM decreasing to less than 1/32 in combination with a test compound is indicated by A) | B (decreasing from 1/32 to 1/16 is indicated by B) | B (decreasing from 1/32 to 1/16 is indicated by B)
5 | O=C(O)c1c(OC2CN(C(=O)Cn3cncn3)C2)ccc2c1O[B-](O)(O)CC2 [Example 18, 4,4-dihydroxy-8-({1-[(1H-1,2,4-triazol-1-yl)acetyl]azetidin-3-yl}oxy)-5-oxa-4-boranuidabicyclo[4.4.0]deca-l(6),7,9-triene-7-carboxylic acid disodium salt] | A (MIC of MEPM decreasing to less than 1/32 in combination with a test compound is indicated by A) | A (MIC of MEPM decreasing to less than 1/32 in combination with a test compound is indicated by A) | B (decreasing from 1/32 to 1/16 is indicated by B)
6 | NC(C(=O)N1CC(Oc2ccc3c(c2C(=O)O)O[B-](O)(O)CC3)C1)c1cnc[nH]1 (stereo not drawn) [Example 19, 8-({1-[amino(1H-imidazol-5-yl)acetyl]azetidin-3-yl}oxy)-4,4-dihydroxy-5-oxa-4-boranuidabicyclo[4.4.0]deca-l(6),7,9-triene-7-carboxylic acid disodium salt] | A (MIC of MEPM decreasing to less than 1/32 in combination with a test compound is indicated by A) | A (MIC of MEPM decreasing to less than 1/32 in combination with a test compound is indicated by A) | B (decreasing from 1/32 to 1/16 is indicated by B)
7 | O=C(O)c1c(OC2CN(C(=O)Cc3ccccc3)C2)ccc2c1O[B-](O)(O)CC2 [Example 20, 4,4-dihydroxy-8-{[1-(phenylacetyl)azetidin-3-yl]oxy}-5-oxa-4-boranuidabicyclo[4.4.0]deca-l(6),7,9-triene-7-carboxylic acid disodium salt] | A (MIC of MEPM decreasing to less than 1/32 in combination with a test compound is indicated by A) | B (decreasing from 1/32 to 1/16 is indicated by B) | B (decreasing from 1/32 to 1/16 is indicated by B)
8 | O=C(O)c1c(OC2CN(C(=O)CCc3ccccc3)C2)ccc2c1O[B-](O)(O)CC2 [Example 21, 4,4-dihydroxy-8-{[1-(3-phenylpropanoyl)azetidin-3-yl]oxy}-5-oxa-4-boranuidabicyclo[4.4.0]deca-l(6),7,9-triene-7-carboxylic acid disodium salt] | A (MIC of MEPM decreasing to less than 1/32 in combination with a test compound is indicated by A) | B (decreasing from 1/32 to 1/16 is indicated by B) | C (decreasing from ⅛ to ¼ is indicated by C)
9 | O=C(O)c1c(OC2CN(C(=O)Cn3ccnc3)C2)ccc2c1O[B-](O)(O)CC2 [Example 22, 4,4-dihydroxy-8-({1-[(1H-imidazol-1-yl)acetyl]azetidin-3-yl}oxy)-5-oxa-4-boranuidabicyclo[4.4.0]deca-l(6),7,9-triene-7-carboxylic acid disodium salt] | A (MIC of MEPM decreasing to less than 1/32 in combination with a test compound is indicated by A) | A (MIC of MEPM decreasing to less than 1/32 in combination with a test compound is indicated by A) | B (decreasing from 1/32 to 1/16 is indicated by B)
10 | O=C(O)c1c(OC2CN(C(=O)Cn3cnnn3)C2)ccc2c1O[B-](O)(O)CC2 [Example 23, 4,4-dihydroxy-8-({1-[(1H-tetrazol-1-yl)acetyl]azetidin-3-yl}oxy)-5-oxa-4-boranuidabicyclo[4.4.0]deca-l(6),7,9-triene-7-carboxylic acid disodium salt] |  | A (MIC of MEPM decreasing to less than 1/32 in combination with a test compound is indicated by A) | B (decreasing from 1/32 to 1/16 is indicated by B)
11 | O=C(O)c1c(OC2CN(C(=O)Cc3nn[nH]n3)C2)ccc2c1O[B-](O)(O)CC2 [Example 24, 4,4-dihydroxy-8-({1-[(2H-tetrazol-5-yl)acetyl]azetidin-3-yl}oxy)-5-oxa-4-boranuidabicyclo[4.4.0]deca-l(6),7,9-triene-7-carboxylic acid disodium salt] | A (MIC of MEPM decreasing to less than 1/32 in combination with a test compound is indicated by A) | A (MIC of MEPM decreasing to less than 1/32 in combination with a test compound is indicated by A) | B (decreasing from 1/32 to 1/16 is indicated by B)
12 | N[C@H](Cc1ccccc1)C(=O)N1CC(Oc2ccc3c(c2C(=O)O)O[B-](O)(O)CC3)C1 [Example 25, 4,4-dihydroxy-8-[(1-D-phenylalanylazetidin-3-yl)oxy]-5-oxa-4-boranuidabicyclo[4.4.0]deca-l(6),7,9-triene-7-carboxylic acid disodium salt] | A (MIC of MEPM decreasing to less than 1/32 in combination with a test compound is indicated by A) | A (MIC of MEPM decreasing to less than 1/32 in combination with a test compound is indicated by A) | B (decreasing from 1/32 to 1/16 is indicated by B)
13 | N[C@H](Cc1ccc(O)cc1)C(=O)N1CC(Oc2ccc3c(c2C(=O)O)O[B-](O)(O)CC3)C1 [Example 26, 4,4-dihydroxy-8-[(1-D-tyrosylazetidin-3-yl)oxy]-5-oxa-4-boranuidabicyclo[4.4.0]deca-l(6),7,9-triene-7-carboxylic acid disodium salt] | A (MIC of MEPM decreasing to less than 1/32 in combination with a test compound is indicated by A) | A (MIC of MEPM decreasing to less than 1/32 in combination with a test compound is indicated by A) | A (MIC of MEPM decreasing to less than 1/32 in combination with a test compound is indicated by A)
14 | N[C@H](Cc1cnc[nH]1)C(=O)N1CC(Oc2ccc3c(c2C(=O)O)O[B-](O)(O)CC3)C1 [Example 27, 8-[(1-D-histidylazetidin-3-yl)oxy]-4,4-dihydroxy-5-oxa-4-boranuidabicyclo[4.4.0]deca-l(6),7,9-triene-7-carboxylic acid disodium salt] |  | A (MIC of MEPM decreasing to less than 1/32 in combination with a test compound is indicated by A) | B (decreasing from 1/32 to 1/16 is indicated by B)
